This note sets out measurements from patent US12187702B2, “Sulfonamideurea compounds” (Inflazome Limited, priority 2018, dated 2025).

Where a name gives a salt, the structure may show the parent alone.

Sequence of NLRP3 (Q96P20 whole entry): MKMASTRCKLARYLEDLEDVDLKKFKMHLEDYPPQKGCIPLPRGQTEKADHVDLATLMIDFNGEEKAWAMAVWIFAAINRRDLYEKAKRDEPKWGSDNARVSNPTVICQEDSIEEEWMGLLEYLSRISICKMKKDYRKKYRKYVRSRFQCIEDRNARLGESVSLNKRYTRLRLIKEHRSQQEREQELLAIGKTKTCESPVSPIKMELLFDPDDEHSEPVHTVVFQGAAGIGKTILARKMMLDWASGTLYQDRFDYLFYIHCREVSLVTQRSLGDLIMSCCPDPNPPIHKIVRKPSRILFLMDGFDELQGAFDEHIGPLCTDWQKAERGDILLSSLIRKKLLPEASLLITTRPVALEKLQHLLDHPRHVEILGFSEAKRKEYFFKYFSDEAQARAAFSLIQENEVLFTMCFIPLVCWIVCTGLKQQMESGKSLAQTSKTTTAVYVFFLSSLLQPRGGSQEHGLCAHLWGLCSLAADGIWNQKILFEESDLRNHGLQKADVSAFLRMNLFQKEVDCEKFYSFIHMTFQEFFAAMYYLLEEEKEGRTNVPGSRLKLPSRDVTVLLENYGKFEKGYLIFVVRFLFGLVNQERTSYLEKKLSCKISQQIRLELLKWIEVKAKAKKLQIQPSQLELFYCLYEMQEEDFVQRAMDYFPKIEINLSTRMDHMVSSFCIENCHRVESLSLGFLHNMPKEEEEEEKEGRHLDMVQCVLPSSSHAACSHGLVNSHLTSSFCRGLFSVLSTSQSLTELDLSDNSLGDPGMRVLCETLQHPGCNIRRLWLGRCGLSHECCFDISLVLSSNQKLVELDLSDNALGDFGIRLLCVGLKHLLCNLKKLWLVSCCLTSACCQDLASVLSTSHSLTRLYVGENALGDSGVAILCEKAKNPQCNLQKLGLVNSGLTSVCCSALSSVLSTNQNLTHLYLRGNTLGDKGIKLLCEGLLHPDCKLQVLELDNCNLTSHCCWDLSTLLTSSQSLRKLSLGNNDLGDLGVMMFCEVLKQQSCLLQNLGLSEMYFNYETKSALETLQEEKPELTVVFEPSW

The assay addresses NLRP3 (Homo sapiens, UniProt Q96P20). Description: THP-1 cells pyroptosis assay (LPS + nigericin, resazurin read-out). The format is cell-based. The conditions noted are these: THP-1 cells, 1 μg/ml LPS, 5 μM nigericin; NLRP3 inhibitory activity; read-out: THP IC50. Set-up: Seed THP-1 cells (25,000 cells/well) containing 1.0 μg/ml LPS; host or cells: THP-1 cells. As for the experimental part: THP-1 cells (ATCC #TIB-202) were grown in RPMI containing L-glutamine (Gibco #11835) supplemented with 1 mM sodium pyruvate (Sigma #S8636) and penicillin (100 units/ml)/streptomycin (0.1 mg/ml) (Sigma #P4333) in 10% Fetal Bovine Serum (FBS) (Sigma #F0804). The cells were routinely passaged and grown to confluency (˜10^6 cells/ml). On the day of the experiment, THP-1 cells were harvested and resuspended into RPMI medium (without FBS). The cells were then counted and viability (>90%) checked by Trypan blue (Sigma #T8154). Appropriate dilutions were made to give a concentration of 625,000 cells/ml. To this diluted cell solution was added LPS (Sigma #L4524) to give a 1 μg/ml Final Assay Concentration (FAC). 40 μl of the final preparation was aliquoted into each well of a 96-well plate. The plate thus prepared was used for compound screening.
The following method step-by-step assay was followed for compound screening. • 1. Seed THP-1 cells (25,000 cells/well) containing 1.0 μg/ml LPS in 40 μl of RPMI medium (without FBS) in 96-well, black walled, clear bottom cell culture plates coated with poly-D-lysine (VWR #734-0317) • 2. Add 5 μl compound (8 points half-log dilution, with 10 μM top dose) or vehicle (DMSO 0.1% FAC) to the appropriate wells • 3. Incubate for 3 hrs at 37° C., 5% CO2 • 4. Add 5 μl nigericin (Sigma #N7143) (FAC 5 μM) to all wells • 5. Incubate for 1 hr at 37° C., 5% CO2 • 6. At the end of the incubation period, spin plates at 300×g for 3 mins and remove supernatant • 7. Then add 50 μl of resazurin (Sigma #R7017) (FAC 100 μM resazurin in RPMI medium without FBS) and incubate plates for a further 1-2 hrs at 37° C. and 5% CO2 • 8. Plates were read in an Envision reader at Ex 560 nm and Em 590 nm • 9. IC50 data is fitted to a non-linear regression equation (log inhibitor vs response-variable slope 4-parameters)
Broadly, the IC50 is the concentration needed to halve the response being measured. `COCCN(C)S(=O)(=O)NC(=O)Nc1c2c(cc3c1CCC3)CCC2` [Example 7, 3-Methyl-((2-Methoxyethyl)sulfamoyl)-1-(1,2,3,5,6,7-hexahydro-s-indacen-4-yl)urea, potassium salt]: the IC50 is less than 1 µM.

For the compound `CC(C)CN(CCN(C)C)S(=O)(=O)NC(=O)Nc1c2c(cc3c1CCC3)CCC2` [Example 12, 3-(N-(2-(Dimethylamino)ethyl)-N-isobutylsulfamoyl)-1-(1,2,3,5,6,7-hexahydro-s-indacen-4-yl)urea, potassium salt], the IC50 was less than 5 µM.

Take `CN(C)CCN(CCc1ccccc1)S(=O)(=O)NC(=O)Nc1c2c(cc3c1CCC3)CCC2` [Example 13, 3-(N-(2-(Dimethylamino)ethyl)-N-phenethylsulfamoyl)-1-(1,2,3,5,6,7-hexahydro-s-indacen-4-yl)urea, potassium salt]: the IC50 is less than 1 µM.

With `CC(CN(C)C)NS(=O)(=O)NC(=O)Nc1c2c(cc3c1CCC3)CCC2` (centres unmarked) [Example 16, 3-(N-(1-(Dimethylamino)propan-2-yl)sulfamoyl)-1-(1,2,3,5,6,7-hexahydro-s-indacen-4-yl)urea, potassium salt], the IC50 was less than 5 µM.

Regarding `CN(C)C1CN(S(=O)(=O)NC(=O)Nc2c3c(cc4c2CCC4)CCC3)C1` [Example 17, 3-(Dimethylamino)-N-((1,2,3,5,6,7-hexahydro-s-indacen-4-yl)carbamoyl)azetidine-1-sulfonamide, potassium salt], the 50% inhibitory concentration (IC50) was less than 1 µM.

On to `CCN(CC)CCN(CC)S(=O)(=O)NC(=O)Nc1c2c(cc3c1CCC3)CCC2` [Example 18, 3-(N-(2-(Diethylamino)ethyl)-N-ethylsulfamoyl)-1-(1,2,3,5,6,7-hexahydro-s-indacen-4-yl)urea, potassium salt], for which the concentration for half-maximal inhibition (IC50) is less than 5 µM.

`CCN1CCCC(NS(=O)(=O)NC(=O)Nc2c3c(cc4c2CCC4)CCC3)C1` (centres unmarked) [Example 19, 3-(N-(1-Ethylpiperidin-3-yl)sulfamoyl)-1-(1,2,3,5,6,7-hexahydro-s-indacen-4-yl)urea, potassium salt]: the IC50 is less than 1 µM.

For `CCN1CCN(S(=O)(=O)NC(=O)Nc2c3c(cc4c2CCC4)CCC3)CC1` [Example 21, 4-Ethyl-N-((1,2,3,5,6,7-hexahydro-s-indacen-4-yl)carbamoyl) piperazine-1-sulfonamide], the IC50 is less than 5 µM.

As for `CN1CCCCC1CN(C)S(=O)(=O)NC(=O)Nc1c2c(cc3c1CCC3)CCC2` (centres unmarked) [Example 22, 3-(N-methyl-N-((1-methylpiperidin-2-yl)methyl)sulfamoyl)-1-(1,2,3,5,6,7-hexahydro-s-indacen-4-yl)urea, potassium salt], the IC50 was less than 0.5 µM.

For `O=C(Nc1c2c(cc3c1CCC3)CCC2)NS(=O)(=O)N1CC(N2CCCC2)C1` [Example 23, potassium salt], the IC50 was less than 5 µM.

Take `O=C1Cc2cc(NS(=O)(=O)NC(=O)Nc3c4c(cc5c3CCC5)CCC4)ccc2N1` [Example 24, 3-(N-(2-Oxoindolin-5-yl)sulfamoyl)-1-(1,2,3,5,6,7-hexahydro-s-indacen-4-yl)urea, potassium salt]: the IC50 is less than 10 µM.

For the compound `CC(CN(C)C)N(C)S(=O)(=O)NC(=O)Nc1c2c(cc3c1CCC3)CCC2` (centres unmarked) [Example 27, 3-(N-(1-(dimethylamino)propan-2-yl)-N-methyl)sulfamoyl)-1-(1,2,3,5,6,7-hexahydro-s-indacen-4-yl)urea, potassium salt], the IC50 is less than 1 µM.

With `CNCCN(C)S(=O)(=O)NC(=O)Nc1c2c(cc3c1CCC3)CCC2` [Example 32, 3-(N-Methyl-N-(2-(methylamino)ethyl))sulfamoyl)-1-(1,2,3,5,6,7-hexahydro-s-indacen-4-yl)urea, potassium salt], the IC50 is less than 5 µM.

Consider `CC(C)N1[C@@H]2CC[C@H]1C[C@@H](NS(=O)(=O)NC(=O)Nc1c3c(cc4c1CCC4)CCC3)C2` [Example 33, (1R,3r,5S)-8-Isopropyl-8-azabicyclo[3.2.1]octan-3-(N-((1,2,3,5,6,7-hexahydro-s-indacen-4-yl)carbamoyl)-sulfonamide)], for which the IC50 was less than 5 µM.
